According to US20040110680A1, “Beta-alethine use in cell culture and therapy” (Regents of the University of New Mexico, priority 1990, published 2004):

Experiments:
[1] = The Merck Index, 9th edition (#221); cited from earlier work
NS-1 myeloma cells [2] = assay type: in vivo; settings: single mouse, 100 μg/kg; tumor cells remained in skeletal muscle, subcutaneous tissue, a mammary gland
Description: NS-1 myeloma cells (ATCC TIB 18, P3/NS1/1-Ag4-1) were employed as inoculant; these cells have proven to be about 90% effective in establishing myelomas in mice according to the exemplified procedure, and the untreated myelomas are substantially fatal within about two weeks.
The cells were grown for several passages (preferably one week) in a sterile environment consisting of RPMI 1640 (Whittaker M. A. Bioproducts, Walkersville, Md., USA) containing 10% fetal calf serum (Hyclone Laboratories, Logan, Utah, USA), 2 mM L-glutamine, 5,000 units of penicillin, and 5 mg streptomycin in 75 cm^2 polystyrene tissue-culture flasks (Corning Glassworks, Corning, N.Y., USA) in a humidified chamber at 37° C. and under 6% CO2. To assure NS-1 propagation in vivo it is essential to remove DMSO (the cryostatic agent dimethyl sulfoxide) through several medium changes and dilutions; this also serves to maintain the cells in log-phases growth. […]
Wasting of the tumor and not the mouse proper was confirmed by weighing the debulked carcass. […] It was thus tentatively determined that the bone demineralized due to rapid growth of the tumor resulting in the fracture, a process which requires calcium and phosphate, and which would also explain the subsequent rapid extraskeletal deposition of calcium phosphate as the tumor was resorbed.

Murine hepatocytes = test: Adaptation of culture-resistant hepatocytes to culture (colony count); assay type: cell-based, BALBc/J mice
Source text: FIG. 4 illustrates data from a single experiment designed to study the use of β-alethine for adapting cells to culture. The culture-resistant cells employed (hepatocytes) were taken from in vivo to in vitro growth. Murine hepatocytes were chosen owing to their being especially difficult to adapt to culture. […] In this experiment a single liver lobe from one of the BALBc/J mice was excised, pressed through a 90 mesh stainless steel screen, washed, and placed in T-25 tissue culture flasks (10 for LUX, Flow General, McClean, Md., USA). All cultures were maintained in 10 ml of the same medium as described in Example III (RPMI-1640 plus fetal calf serum plus pen/strep plus L-glutamine) and the test cultures exposed to various concentrations of β-alethine as indicated in FIG. 4. […] It was possible to obtain some viable colonies from the control cultures, but only if 10- to 20-fold higher initial cell concentrations were used; therefore the β-alethine was between 500- and 1000-fold more efficient in adapting murine hepatocytes to in vitro culture than control, i.e., saline-treated medium. […] The effect is again dose-dependent, as illustrated.

NS-1 myeloma cells [3] = test: NS-1 myeloma in inoculated mice, early intervention; assay type: in vivo
Source text: To assure NS-1 propagation in vivo it is essential to remove DMSO (the cryostatic agent dimethyl sulfoxide) through several medium changes and dilutions; this also serves to maintain the cells in log-phases growth. […] The mice were maintained with Wayne Rodent Blox (Wayne Research Animal Diets, Chicago, Ill., USA) ad lib. and tap water.
The inoculated mice were compared to a) untreated controls and b) to carrier-injected (saline-injected) controls.

[4] = system: IMR-90 human fetal lung fibroblasts; test: Maximum population doubling level (PDL) of IMR-90 fibroblasts, delay of cellular senescence; assay type: cell-based
Source text: This cell line is available from the American Type Culture Collection (ATCC, Bethesda, Md., USA) and is used as a standard for in vitro cellular senescence studies. Cellular senescence is loosely defined as those cellular process(es) that together result in the cell's inability to replenish itself in culture. This model represents aging processes in vivo, and cell lines developed from humans of different ages have PDL's in vitro which are inversely related to the chronological age of the donor. The IMR-90 cells depicted in FIG. 1 were grown under ideal conditions in McCoy's 5A synthetic medium supplemented with HEPES buffer at 10 mM; 100 units penicillin G/ml and 100 μg streptomycin/ml at standard concentrations; new born calf serum (NBCS) at 20% (V/V); and L-glutamine at 2 mM. The treated cell cultures were augmented with different concentrations of β-alethine (as indicated) dissolved in phosphate-buffered saline (PBS)—-always in a standard volume of 30 microliters per culture. […] The cells were then washed twice with the complete medium and counted in a double Neubauer hemacytometer; 2 million cells were aliquoted into a fresh tissue culture flask (T-75, polystyrene by LUX, Flow General, McClean, Md., USA) with 20 ml of fresh complete medium. […]

[5] = system: human peripheral blood leukocytes (HPBLs); test: Non-antigen-specific immunoglobulin synthesis and secretion by HPBLs, protein-A facilitated plaque assay (Ig-PFC); assay type: cell-based
Source text: FIG. 2 illustrates data from a series of experiments designed to assess the effect of β-alethine on non-antigen-specific immunoglobulin synthesis and secretion in vitro by human peripheral blood leukocytes (HPBLs), generally characterized as a peripheral lymphoid organ primarily populated by medium-sized, mature lymphocytes. In these experiments, blood was taken from healthy male humans; the blood was then defibrinated on glass beads, and the leukocytes separated by centrifugation (buffy coat technique). Residual red blood cells were lysed with a brief treatment with 0.85% ammonium chloride. The leukocytes were counted and dispensed into 24 well tissue culture trays (LUX, Flow General, McClean, Md., USA) in 1 ml of RPMI 1640 basal medium supplemented with penicillin, streptomycin, 10% fetal calf serum, and L-glutamine. β-alethine was added to test cultures at various concentrations in 30 microliter doses. The cells were harvested as indicated in FIG. 2 at various times between 72 and 144 hours of culture and tested for antibody production using a conventional protein-A facilitated plaque assay (A-PFC or Ig-PFC). […] In addition, aliquots of cells were also tested for proliferation status by treating them with 0.5 μCi of tritiated thymidine (6-9 Ci/mole) followed by assessing the level of incorporation of radioactivity into newly synthesized DNA. […]

[6] = i.p., Monday, Wednesday, Friday from day 2 through day 47

SMILES | stability in air and aqueous solutions [1] | tumor cells in remaining organs (histology) (NS-1 myeloma cells [2]) | colonies of hepatocytes observed (Murine hepatocytes; 10 ng/ml, no colonies in the control culture) | stability of treated cells in culture (Murine hepatocytes; long-term culture, in contrast to control cells) | deaths (NS-1 myeloma cells [3]; 10 pg/kg mouse) | normal weight gain of the mice (NS-1 myeloma cells [3]; 10 μg/kg) | persistence of the palpable tumor before regression (NS-1 myeloma cells [3]; 10 μg/kg, one mouse) [days] | normal weight gain of the mice (NS-1 myeloma cells [3]; 100 μg/kg) | fraction of animals that ultimately contracted tumor (NS-1 myeloma cells [3]; at about 10 pg/kg or 1 ng/kg, without treatment 75% euthanized or died) | mice developing a palpable tumor (NS-1 myeloma cells [3]; at about 10 μg/kg or 100 μg/kg) | therapeutic minimal threshold (lower end of effective range) for preventing onset of NS-1 myeloma (NS-1 myeloma cells [3]; [6]) [pg/kg mouse] | upper end of effective concentration range for preventing onset of NS-1 myeloma (NS-1 myeloma cells [3]; [6]) [μg/kg mouse] | morphology of tumors developing under therapy (NS-1 myeloma cells [3]; untreated controls typically developed ascites) | increase in cell number (biomass) ([4]; absolute terms, factor of 2 raised to the power 55) | life expectancy of the cells ([4]; augmentation of growth versus untreated cells) | optimal concentration for immunoglobulin production ([5]; HPBLs) | immunoglobulin production relative to untreated control ([5]; dose-dependent, 72 to 144 hours of culture)
NCCC(=O)NCCS [β-aletheine] | unstable in air and aqueous solutions |  |  |  |  |  |  |  |  |  |  |  |  |  |  |  | 
NCCC(=O)NCCSSCCNC(=O)CCN [β-alethine, N,N′-bis-(β-alanyl-2-aminoethyl) Disulfide] |  | none of the remaining organs contained tumor cells | approximately 50 colonies | stable in culture | two deaths | not significantly | 20 | slightly inhibited | one-third to two-thirds | only one mouse developed a palpable tumor | 10 | 100 | with few exceptions solid masses | 3.6×10^16 fold | doubling of the life expectancy | about 5 nanograms/ml culture | approximately 60 times the untreated control levels
